# ± gives the expanded uncertainty stated by the source.
# Assays:
# [1] = 101 kPa, Liquid
# [2] = xn = mol fraction of the nth substance listed; conditions: 101 kPa, Liquid, x2 = 0
smiles,measurement,setting,value
OCCOCCO [diethylene glycol],mass density,[1]; 283.15 K,1124.24 ± 0.73 kg/m3
same,mass density,[1]; 288.15 K,1120.65 ± 0.72 kg/m3
same,mass density,[1]; 293.15 K,1117.05 ± 0.71 kg/m3
same,viscosity,[1]; 293.15 K,36.43 ± 0.35 mPa·s
same,mass density,[1]; 298.15 K,1113.47 ± 0.7 kg/m3
same,mass density,[1]; 303.15 K,1109.88 ± 0.69 kg/m3
same,viscosity,[1]; 303.15 K,22.09 ± 0.22 mPa·s
same,mass density,[1]; 308.15 K,1106.29 ± 0.68 kg/m3
same,mass density,[1]; 313.15 K,1102.7 ± 0.67 kg/m3
same,viscosity,[1]; 313.15 K,14.56 ± 0.15 mPa·s
same,mass density,[1]; 318.15 K,1099.11 ± 0.66 kg/m3
same,mass density,[1]; 323.15 K,1095.51 ± 0.65 kg/m3
same,viscosity,[1]; 323.15 K,10.03 ± 0.11 mPa·s
same,mass density,[1]; 328.15 K,1091.91 ± 0.64 kg/m3
same,mass density,[1]; 333.15 K,1088.3 ± 0.63 kg/m3
same,viscosity,[1]; 333.15 K,7.22 ± 0.08 mPa·s
same,mass density,[1]; 338.15 K,1084.68 ± 0.62 kg/m3
same,mass density,[1]; 343.15 K,1081.05 ± 0.61 kg/m3
same,viscosity,[1]; 343.15 K,5.369 ± 0.063 mPa·s
same,mass density,[1]; 348.15 K,1077.4 ± 0.6 kg/m3
same,mass density,[1]; 353.15 K,1073.74 ± 0.59 kg/m3
same,viscosity,[1]; 353.15 K,4.139 ± 0.05 mPa·s
O [water] + OCCOCCO,mass density,[2]; 283.15 K,999.7 ± 0.19 kg/m3
same,viscosity,[2]; 293.15 K,1.013 ± 0.014 mPa·s
same,mass density,[2]; 303.15 K,995.55 ± 0.2 kg/m3
same,viscosity,[2]; 303.15 K,0.811 ± 0.012 mPa·s
same,viscosity,[2]; 313.15 K,0.667 ± 0.011 mPa·s
same,mass density,[2]; 323.15 K,988.03 ± 0.21 kg/m3
same,viscosity,[2]; 323.15 K,0.561 ± 0.011 mPa·s
same,mass density,[2]; 328.15 K,985.69 ± 0.22 kg/m3
same,mass density,[2]; 333.15 K,983.19 ± 0.23 kg/m3
same,viscosity,[2]; 333.15 K,0.477 ± 0.01 mPa·s
same,mass density,[2]; 338.15 K,980.55 ± 0.23 kg/m3
same,mass density,[2]; 343.15 K,977.76 ± 0.24 kg/m3
same,viscosity,[2]; 343.15 K,0.413 ± 0.01 mPa·s
same,mass density,[2]; 348.15 K,974.84 ± 0.25 kg/m3
same,mass density,[2]; 353.15 K,971.79 ± 0.25 kg/m3
same,viscosity,[2]; 353.15 K,0.362 ± 0.009 mPa·s

# From the NIST ThermoML archive (doi:10.1021/je700672f)
